Converted amounts (≈) assume the structure as drawn.
What was measured:
[1] = test system: Staphylococcus aureus 491; assay: broth micro-dilution MIC; type: cell-based
Procedure: (§1) The MIC's were determined using a standard broth micro-dilution assay.

[2] = test system: Staphylococcus aureus 447; assay: broth micro-dilution MIC; type: cell-based
Procedure: as §1

[3] = test system: Staphylococcus aureus 446; assay: broth micro-dilution MIC; type: cell-based
Procedure: as §1

[4] = test system: Staphylococcus aureus X400; assay: broth micro-dilution MIC; type: cell-based
Procedure: as §1

[5] = test system: Staphylococcus aureus SA1199A; assay: broth micro-dilution MIC; type: cell-based
Procedure: as §1

[6] = test system: Staphylococcus aureus 489; assay: broth micro-dilution MIC; type: cell-based
Procedure: as §1

[7] = test system: Staphylococcus aureus X778; assay: broth micro-dilution MIC; type: cell-based
Procedure: as §1

[8] = test system: Entercoccus faecium 180-1; assay: broth micro-dilution MIC; type: cell-based
Procedure: as §1

[9] = test system: Staphylococcus aureus SA1199; assay: broth micro-dilution MIC; type: cell-based
Procedure: as §1

[10] = test system: Streptococcus pyogenes C203; assay: broth micro-dilution MIC; type: cell-based
Procedure: as §1

Entercoccus faecium 276 = assay: broth micro-dilution MIC; type: cell-based
Procedure: as §1

[11] = test system: Staphylococcus aureus S13E; type: cell-based
Procedure: as §1

[12] = test system: Staphylococcus aureus SA1199B; type: cell-based
Procedure: as §1

[13] = test system: vancomycin-susceptible enterococci; assay: broth micro-dilution, mean geometric MIC; type: cell-based, Enterococcus faecium and Enterococcus faecalis; details: enterococci, 24-hour incubation
Entercoccus faecium 2041 = assay: broth micro-dilution MIC; type: cell-based; details: Entercoccus faecium 2041
Procedure: (§2) The formula I compounds have in vitro and in vivo activity against Gram-positive pathogenic bacteria. The MIC's were determined using a standard broth micro-dilution assay.

[14] = test system: Staphylococcus haemolyticus 105; assay: broth micro-dilution MIC; type: cell-based
Procedure: as §2

[15] = test system: Staphylococcus epidermidis 270; assay: broth micro-dilution MIC; type: cell-based
Procedure: as §2

[16] = test system: Staphylococcus haemolyticus 415; assay: broth micro-dilution MIC; type: cell-based
Procedure: as §2

Entercoccus faecium 180 = assay: broth micro-dilution MIC; type: cell-based; details: Entercoccus faecium 180
Procedure: as §2

Escherichia coli EC14 = assay: broth micro-dilution MIC; type: cell-based
Procedure: as §2

[17] = test system: Streptococcus pneumoniae P1; assay: broth micro-dilution MIC; type: cell-based
Procedure: as §2

[18] = test system: Enterococcus gallinarum 245; assay: broth micro-dilution MIC; type: cell-based; details: Enterococcus gallinarum 245
Procedure: as §2

[19] = test system: Haemophilus influenzae RD; assay: broth micro-dilution MIC; type: cell-based; details: Haemophilus influenzae RD
Procedure: as §2

[20] = test system: vancomycin-resistant enterococci; assay: broth micro-dilution, mean geometric MIC; type: cell-based, Enterococcus faecium and Enterococcus faecalis; details: enterococci, 24-hour incubation

| SMILES | MIC [1] [µg/mL] | MIC [2] [µg/mL] | MIC [3] [µg/mL] | MIC [4] [µg/mL] | MIC [5] [µg/mL] | MIC [6] [µg/mL] | MIC [7] [µg/mL] | MIC [8] [µg/mL] | MIC [9] [µg/mL] | MIC [10] [µg/mL] | MIC (Entercoccus faecium 276) [µg/mL] | MIC [11] [µg/mL] | MIC [12] [µg/mL] | mean geometric MIC, Vancomycin Sensitive Strains [13] [µg/mL] | MIC (Entercoccus faecium 2041) [µg/mL] | MIC [14] [µg/mL] | MIC [15] [µg/mL] | MIC [16] [µg/mL] | MIC (Entercoccus faecium 180) [µg/mL] | MIC (Escherichia coli EC14) [µg/mL] | other results |
| --- | --- | --- | --- | --- | --- | --- | --- | --- | --- | --- | --- | --- | --- | --- | --- | --- | --- | --- | --- | --- | --- |
| CC(C)CC(C(=O)NC1C(=O)NC(CC(N)=O)C(=O)NC2C(=O)NC3C(=O)NC(C(=O)NC(C(=O)O)c4cc(O)cc(O)c4-c4cc3ccc4O)C(OC3CC(C)(N)C(O)C(C)O3)c3ccc(c(Cl)c3)Oc3cc2cc(c3OC2OC(CO)C(O)C(O)C2OC2CC(C)(N)C(O)C(C)O2)Oc2ccc(cc2Cl)C1O)N(C)Cc1ccc(-c2ccc(Cl)cc2)cc1.O=C(O)C(F)(F)F (stereo not drawn) [Compound 252] | ≤ 0.06 | ≤ 0.06 | 0.125 | 0.125 | ≤ 0.06 | ≤ 0.06 | ≤ 0.06 | ≤ 0.06 | 0.125 | ≤ 0.06 | ≤ 0.06 | 0.125 | ≤ 0.06 | 0.1 | ≤ 0.06 | 0.5 | 0.125 | 1 | 0.5 | > 64 | MIC [17]: ≤ 0.06 µg/mL; MIC [18]: 1 µg/mL; MIC [19]: > 64 µg/mL; mean geometric MIC, Vancomycin Resistant Strains [20]: 9.5 µg/mL |
| CC(C)CC(C(=O)NC1C(=O)NC(CC(N)=O)C(=O)NC2C(=O)NC3C(=O)NC(C(=O)NC(C(=O)O)c4cc(O)cc(O)c4-c4cc3ccc4O)C(OC3CC(C)(N)C(O)C(C)O3)c3ccc(c(Cl)c3)Oc3cc2cc(c3OC2OC(CO)C(O)C(O)C2OC2CC(C)(NCc3ccc(Oc4ccccc4)cc3)C(O)C(C)O2)Oc2ccc(cc2Cl)C1O)N(C)Cc1ccc(Oc2ccccc2)cc1 (stereo not drawn) [Compound 247] | 0.5 (≈ 0.256 µM) | 1 (≈ 0.511 µM) | 0.5 (≈ 0.256 µM) | 0.5 (≈ 0.256 µM) | ≤ 0.06 | 0.25 (≈ 0.128 µM) | 0.5 (≈ 0.256 µM) | ≤ 0.06 | 1 (≈ 0.511 µM) | ≤ 0.06 | 0.25 (≈ 0.128 µM) | 0.5 (≈ 0.256 µM) | 0.5 (≈ 0.256 µM) | 0.29 | 0.125 (≈ 0.0639 µM) | 1 (≈ 0.511 µM) | 1 (≈ 0.511 µM) | 2 (≈ 1.02 µM) | 0.5 (≈ 0.256 µM) | > 64 | MIC [17]: ≤ 0.06 µg/mL; MIC [18]: 0.125 µg/mL (≈ 0.0639 µM); MIC [19]: > 64 µg/mL; mean geometric MIC, Vancomycin Resistant Strains [20]: 2.4 µg/mL |
| CC(C)CC(C(=O)NC1C(=O)NC(CC(N)=O)C(=O)NC2C(=O)NC3C(=O)NC(C(=O)NC(C(=O)O)c4cc(O)cc(O)c4-c4cc3ccc4O)C(OC3CC(C)(N)C(O)C(C)O3)c3ccc(c(Cl)c3)Oc3cc2cc(c3OC2OC(CO)C(O)C(O)C2OC2CC(C)(NCc3ccc(Oc4ccc([N+](=O)[O-])cc4)cc3)C(O)C(C)O2)Oc2ccc(cc2Cl)C1O)N(C)Cc1ccc(Oc2ccc([N+](=O)[O-])cc2)cc1 (stereo not drawn) [Compound 267] | 1 (≈ 0.489 µM) | 0.5 (≈ 0.244 µM) | 0.5 (≈ 0.244 µM) | 0.5 (≈ 0.244 µM) | ≤ 0.06 | 0.25 (≈ 0.122 µM) | 1 (≈ 0.489 µM) | 0.125 (≈ 0.0611 µM) | 2 (≈ 0.977 µM) | ≤ 0.06 | 1 (≈ 0.489 µM) | 1 (≈ 0.489 µM) | 1 (≈ 0.489 µM) | 0.22 | 0.25 (≈ 0.122 µM) | 16 (≈ 7.82 µM) | 4 (≈ 1.95 µM) | 4 (≈ 1.95 µM) | 0.25 (≈ 0.122 µM) | > 64 | MIC [17]: ≤ 0.06 µg/mL; MIC [18]: 4 µg/mL (≈ 1.95 µM); MIC [19]: > 64 µg/mL; mean geometric MIC, Vancomycin Resistant Strains [20]: 2.8 µg/mL |
| CNC(CC(C)C)C(=O)NC1C(=O)NC(CC(N)=O)C(=O)NC2C(=O)NC3C(=O)NC(C(=O)NC(C(=O)O)c4cc(O)cc(O)c4-c4cc3ccc4O)C(OC3CC(C)(NCc4ccc(-c5ccc([N+](=O)[O-])cc5)cc4)C(O)C(C)O3)c3ccc(c(Cl)c3)Oc3cc2cc(c3OC2OC(CO)C(O)C(O)C2OC2CC(C)(NCc3ccc(-c4ccc([N+](=O)[O-])cc4)cc3)C(O)C(C)O2)Oc2ccc(cc2Cl)C1O (stereo not drawn) [Compound 263] | 1 (≈ 0.496 µM) | 2 (≈ 0.993 µM) | 1 (≈ 0.496 µM) | 0.5 (≈ 0.248 µM) | ≤ 0.06 | 0.25 (≈ 0.124 µM) | 0.5 (≈ 0.248 µM) | ≤ 0.06 | 1 (≈ 0.496 µM) | ≤ 0.06 | 0.5 (≈ 0.248 µM) | 1 (≈ 0.496 µM) | 1 (≈ 0.496 µM) | 0.29 | ≤ 0.06 | 16 (≈ 7.94 µM) | 4 (≈ 1.99 µM) | 8 (≈ 3.97 µM) | ≤ 0.06 | 65 (≈ 32.3 µM) | MIC [17]: ≤ 0.06 µg/mL; MIC [18]: 8 µg/mL (≈ 3.97 µM); MIC [19]: > 64 µg/mL; mean geometric MIC, Vancomycin Resistant Strains [20]: 1.7 µg/mL |
| CC(C)CC(C(=O)NC1C(=O)NC(CC(N)=O)C(=O)NC2C(=O)NC3C(=O)NC(C(=O)NC(C(=O)O)c4cc(O)cc(O)c4-c4cc3ccc4O)C(OC3CC(C)(N)C(O)C(C)O3)c3ccc(c(Cl)c3)Oc3cc2cc(c3OC2OC(CO)C(O)C(O)C2OC2CC(C)(NCc3ccc(-c4ccc(Cl)cc4)cc3)C(O)C(C)O2)Oc2ccc(cc2Cl)C1O)N(C)Cc1ccc(-c2ccc(Cl)cc2)cc1.O=C(O)C(F)(F)F (stereo not drawn) [Compound 253] | 2 | 16 | 64 | 32 | 1 | 16 | 16 | 0.5 | 32 | 0.25 | 16 | 32 | 32 | 3 | 4 | 16 | 8 | 16 | 0.5 | > 64 | MIC [17]: 0.125 µg/mL; MIC [18]: 16 µg/mL; MIC [19]: > 64 µg/mL; mean geometric MIC, Vancomycin Resistant Strains [20]: 4.8 µg/mL |
| CC(C)CC(C(=O)NC1C(=O)NC(CC(N)=O)C(=O)NC2C(=O)NC3C(=O)NC(C(=O)NC(C(=O)O)c4cc(O)cc(O)c4-c4cc3ccc4O)C(OC3CC(C)(N)C(O)C(C)O3)c3ccc(c(Cl)c3)Oc3cc2cc(c3OC2OC(CO)C(O)C(O)C2OC2CC(C)(NCc3cccc(Oc4ccccc4)c3)C(O)C(C)O2)Oc2ccc(cc2Cl)C1O)N(C)Cc1cccc(Oc2ccccc2)c1 (stereo not drawn) [Compound 271] | 0.5 (≈ 0.256 µM) | 2 (≈ 1.02 µM) | 1 (≈ 0.511 µM) | 2 (≈ 1.02 µM) | 0.5 (≈ 0.256 µM) | 1 (≈ 0.511 µM) | 0.5 (≈ 0.256 µM) | 0.125 (≈ 0.0639 µM) | 2 (≈ 1.02 µM) | ≤ 0.06 | 1 (≈ 0.511 µM) | 1 (≈ 0.511 µM) | 1 (≈ 0.511 µM) | 0.33 | 2 (≈ 1.02 µM) | 2 (≈ 1.02 µM) | 1 (≈ 0.511 µM) | 2 (≈ 1.02 µM) | 2 (≈ 1.02 µM) | > 64 | MIC [17]: ≤ 0.06 µg/mL; MIC [18]: 2 µg/mL (≈ 1.02 µM); MIC [19]: > 64 µg/mL; mean geometric MIC, Vancomycin Resistant Strains [20]: 5.7 µg/mL |

Source: US5840684A, “Glycopeptide antibiotic derivatives” (Eli Lilly and Company, priority 1995, dated 1998)
